Here are results for eight molecules from paper PMC7753975 (Journal of medicinal chemistry, 2015).

For orientation: GI50 means the concentration giving 50% growth inhibition.

Molecules are shown by their SMILES.

In the first data set the test system is NCI-60 human tumor cell lines. Nature of the data set: NCI-60 five-dose assay, mean graph midpoint. The class given is cell-based. The following applies: Homo sapiens, read-out: cytotoxicity (GI50, μM) MGM, mean graph midpoint of growth inhibition from 5 dose assay, ranging from 10^−8–10^−4 M.
As to `O=C1c2ccccc2-c2c1c1cc(C(F)(F)F)ccc1c(=O)n2CCCn1ccnc1` [Compound 63, 2-(Trifluoromethyl)-5,6-dihydro-6-(3-(1H-imidazol-1-yl)-propyl)-5,11-dioxo-11H-indeno[1,2-c]isoquinoline], the GI50 was at least 0.944 µM. As for `O=C1c2ccccc2-c2c1c1ccc(F)cc1c(=O)n2CCCN1CCOCC1` [Compound 68, 3-Fluoro-5,6-dihydro-6-(3-morpholinopropyl)-5,11-dioxo-11H-indeno[1,2-c]isoquinoline], the GI50 was found to be 2.75 µM. Still for that read-out and setting: as for `O=C1c2ccccc2-c2c1c1ccc(C(F)(F)F)cc1c(=O)n2CCCn1ccnc1` [Compound 64, 3-(Trifluoromethyl)-5,6-dihydro-6-(3-(1H-imidazol-1-yl)-propyl)-5,11-dioxo-11H-indeno[1,2-c]isoquinoline], the figure is 1.07 µM; as for `O=C1c2ccccc2-c2c1c1ccc(Cl)cc1c(=O)n2CCCN1CCOCC1` [Compound 69, 3-Chloro-5,6-dihydro-6-(3-morpholinopropyl)-5,11-dioxo-11H-indeno[1,2-c]isoquinoline], 4.17 µM; as for `O=C1c2ccccc2-c2c1c1ccc(F)cc1c(=O)n2CCCn1ccnc1` [Compound 60, 3-Fluoro-5,6-dihydro-6-(3-(1H-imidazol-1-yl)propyl)-5,11-dioxo-11H-indeno[1,2-c]isoquinoline], 0.692 µM. On the same count and under the same terms, as for `CC[C@@]1(O)C(=O)OCc2c1cc1n(c2=O)Cc2cc3c(CN(C)C)c(O)ccc3nc2-1` [Compound 2, topotecan, reference compound], the figure is 0.0405 ± 0.0187 µM; as for `O=C1c2ccccc2-c2c1c1ccc(Cl)cc1c(=O)n2C[C@H](O)CO` [Compound 50, (S)-3-Chloro-5,6-dihydro-6-(2,3-dihydroxypropyl)-5,11-dioxo-11H-indeno[1,2-c]isoquinoline], 1.12 µM.

For the molecule `O=C1c2ccccc2-c2c1c1ccc(I)cc1c(=O)n2CCCn1ccnc1` [Compound 62, 5,6-Dihydro-6-(3-(1H-imidazol-1-yl)propyl)-3-iodo-5,11-dioxo-11H-indeno[1,2-c]isoquinoline], the GI50 is at least 0.944 µM.

The same data set, now with this note: human.
The molecule `O=C1c2ccccc2-c2c1c1ccc(I)cc1c(=O)n2CCCn1ccnc1` [Compound 62, 5,6-Dihydro-6-(3-(1H-imidazol-1-yl)propyl)-3-iodo-5,11-dioxo-11H-indeno[1,2-c]isoquinoline] gave a GI50 of 1.62 µM.
